According to patent publication US9453026B2, “ACC inhibitors and uses thereof” (Gilead Apollo, Inc., priority 2011, dated 2016):

Experiments:
HepG2 cells = assay: [14C] Acetate Incorporation HepG2 Cellular Assay; type: cell-based; conditions: Hep-G2 cells, FIG. 7
Description: Compounds of the present invention were evaluated in a [^14C] Acetate Incorporation Assay. An exemplary procedure for the assay, which measures the incorporation of isotopically labeled acetate into fatty acids, follows. HepG2 cells were maintained in T-75 flasks containing DMEM supplemented with 2 mM 1-glutamine, penicillin G (100 units/ml), streptomycin 100 μg/ml with 10% FBS and incubated in a humidified incubator with 5% CO2 at 37° C. Cells were fed every 2-3 days. On Day 1. cells were seeded in 24 well plates at a density of 1.2×10^5 cells/ml/well with the growth medium. On Day 3 the medium was replaced with fresh medium containing 10% FBS. On Day 4 the medium was replaced with 0.5 ml of fresh medium containing test compound (in DMSO; final [DMSO] is 0.5%) and the cells were incubated at 37° C. for 1 hour. To one copy of plate, 4 ul of [2-^14C]acetate (56 mCi/mmol; 1 mCi/ml; PerkinElmer) was added and the cells were incubated at 37° C., 5% CO2 for 5 hrs. To a second copy of plate, 4 ul of cold acetate were added and the cells were incubated at 37° C., 5% CO2 for 5 hrs. This plate was used for protein concentration measurement. Medium was removed and placed in a 15 ml centrifuge tube (BD, Falcon/352096). Cells were rinsed with 1 ml PBS, then aspirated, and the rinse and aspiration steps were repeated. 0.5 ml of 0.1N NaOH were added to each well and let sit at RT to dissolve cell monolayer. The remaining cell suspension was pooled with medium. For the protein determination plate, an aliquot was removed for protein determination (25 ul). […] 5 ml petroleum ether was added per tube, shaken vigorously, centrifuged at 1000 rpm for 5 min, and 500 uL of the petroleum ether layer was transferred to tubes for Microbeta reading, then 2 ml Aquasol-2 were added to each tube, the tubes were shaken and counted with a Microbeta Liquid Scintillation Counter (Perkin Elmer).
The remaining petroleum ether layer was discarded and the aqueous phase reserved for fatty acid extractions. […] 2 ml of Aquasol-2 was added to each vial, and the vials were shaken and counted on a scintillation counter.

[1] = High sucrose diet DIO study, plasma cholesterol and triglycerides; type: in vivo, Sprague Dawley rats; conditions: for Plasma Cholesterol / Plasma Triglycerides: high sucrose-fed DIO rats, mean ± SEM, n=14
Description: The compounds of the present invention are readily adapted to clinical use as anti-obesity agents, insulin sensitizing agents, hyperinsulinemia-reversing agents, and hepatic steatosis-reversing agents. Such activity was determined by assessing the amount of test compound that reduces body weight and percentage body fat, reduces plasma insulin levels, blunts the rise and/or accelerates the reduction in plasma insulin and glucose levels in response to an oral glucose challenge, and reduces hepatic lipid content relative to a control vehicle without test compound in mammals. Sprague Dawley rats were fed either chow, a diet high in sucrose (for example AIN76A rodent diet; Research diets Inc. Cat #10001) or a diet high in fat (for example Research diets Inc. Cat #12451), for from 3-8 weeks prior to and during test compound administration.
For example, after a 3-8 week period of ad libitum feeding of either a chow, high-fat, or high-sucrose diet, animals that continued to receive the diet were treated for 1-8 weeks with test compound administered either by oral gavage in water or saline or water or saline containing 0.5% methylcelluose using a Q.D., B.I.D, or T.I.D. dosing regimen. At various times during study and at sacrifice (by CO2 asphyxiation), blood was collected either from the tail vein of an unanesthesized rat or from the vena cava of animals at sacrifice into heparin or EDTA containing tubes for centrifugal separation to prepare plasma. Plasma levels of parameters of lipid and carbohydrate metabolism known by those skilled in the art to be altered coincident with anti-obesity, insulin sensitizing, hyperinsulinemia-reversing, and hepatic steatosis-reversing actions, including but not limited to cholesterol and triglycerides, glucose, insulin, leptin, adiponectin, ketone bodies, free fatty acids, and glycerol, are measured using methods known to those skilled in the art.
The anti-obesity, insulin sensitizing, hyperinsulinemia-reversing, and hepatic steatosis-reversing potential of compounds of the present invention are exemplified through the actions of example compound I-181. […] Results of the reduction in total body weight measurements after treatment of high fat diet-fed DIO rats with compound I-181 are shown in FIG. 11. The degree of body weight reduction paralleled plasma drug levels measured at the end of the study. […] The plasma leptin levels for animals receiving the standard chow diet (lean controls) were also evaluated to determine the extent of parameter normalization produced by compound I-181. […] Results of the reduction in plasma insulin measurements after treatment of high fat diet-fed DIO rats with compound I-181 are shown in FIG. 12. […] Results of the reduction in hepatic triglyceride and cholesterol measurements after treatment of high fat diet-fed DIO rats with compound I-181 are shown in FIG. 13. […] Results of diet-induced obesity studies measuring the effect of compound I-181 on plasma cholesterol and plasma triglycerides are shown in Table 4 below. Data shown are mean values for n=14 animals per group±SEM.

Structure (SMILES): COc1ccccc1[C@H](Cn1c(=O)n(C(C)(C)C(=O)O)c(=O)c2c(C)c(-c3ncco3)sc21)OC1CCOCC1 [I-181, 2-[1-[2-(2-methoxyphenyl)-2-(oxan-4-yloxy)ethyl]-5-methyl-6-(1,3-oxazol-2-yl)-2,4-dioxo-1H,2H,3H,4H-thieno[2,3-d]pyrimidin-3-yl]-2-methylpropanoic acid]
- incorporation of isotopically labeled acetate into fatty acids (HepG2 cells): inhibit incorporation of isotopically labeled acetate into fatty acids
- plasma cholesterol and triglyceride levels ([1]; high sucrose diet rats, 3, 10, 30 mg/kg once daily oral gavage, two weeks): dose-dependent reduction in plasma cholesterol and triglyceride levels
- Plasma Cholesterol ([1]; 3 mg/kg, Day 7): 94 ± 3 mg/dL
- Plasma Triglycerides ([1]; 3 mg/kg, Day 7): 154 ± 15 mg/dL
- Plasma Cholesterol ([1]; 3 mg/kg, Day 14): 96 ± 3 mg/dL
- Plasma Triglycerides ([1]; 3 mg/kg, Day 14): 171 ± 16 mg/dL
- Plasma Cholesterol ([1]; 3 mg/kg, Prebleed): 96 ± 2 mg/dL
- Plasma Triglycerides ([1]; 3 mg/kg, Prebleed): 144 ± 12 mg/dL
- Plasma Cholesterol ([1]; 10 mg/kg, Day 7): 82 ± 3 mg/dL
- Plasma Triglycerides ([1]; 10 mg/kg, Day 7): 139 ± 10 mg/dL
- Plasma Cholesterol ([1]; 10 mg/kg, Day 14): 87 ± 3 mg/dL
- Plasma Triglycerides ([1]; 10 mg/kg, Day 14): 165 ± 15 mg/dL
- Plasma Cholesterol ([1]; 10 mg/kg, Prebleed): 96 ± 3 mg/dL
- Plasma Triglycerides ([1]; 10 mg/kg, Prebleed): 183 ± 18 mg/dL
- Plasma Cholesterol ([1]; 30 mg/kg, Day 7): 78 ± 3 mg/dL
- Plasma Triglycerides ([1]; 30 mg/kg, Day 7): 116 ± 9 mg/dL
- Plasma Cholesterol ([1]; 30 mg/kg, Day 14): 78 ± 2 mg/dL
- Plasma Triglycerides ([1]; 30 mg/kg, Day 14): 118 ± 14 mg/dL
- Plasma Cholesterol ([1]; 30 mg/kg, Prebleed): 99 ± 3 mg/dL
- Plasma Triglycerides ([1]; 30 mg/kg, Prebleed): 166 ± 13 mg/dL
